Assay results: PubChem BioAssay (NCI)
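Cultured in 96-well plates, cells were exposed to test compound for 48 hours across five concentrations. GI50: concentration for 50% inhibition of growth. TGI: concentration producing complete growth inhibition.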

Tests used:
Assay in all cases: DTP human tumour cell line panel, 48 h
RXF 393 renal = system: RXF 393 renal
SK-MEL-28 melanoma = system: SK-MEL-28 melanoma
OVCAR-8 ovarian = system: OVCAR-8 ovarian
SNB-19 CNS = system: SNB-19 CNS
UO-31 renal = system: UO-31 renal
HCC-2998 colon = system: HCC-2998 colon
A549 NSCLC = system: A549 NSCLC
DU-145 prostate = system: DU-145 prostate
CCRF-CEM leukemia = system: CCRF-CEM leukemia
MCF7 breast = system: MCF7 breast
SR leukemia = system: SR leukemia
K-562 leukemia = system: K-562 leukemia
LOX IMVI melanoma = system: LOX IMVI melanoma
HCT-116 colon = system: HCT-116 colon
HL-60(TB) leukemia = system: HL-60(TB) leukemia
BT-549 breast = system: BT-549 breast
MOLT-4 leukemia = system: MOLT-4 leukemia
HOP-62 NSCLC = system: HOP-62 NSCLC
HT29 colon = system: HT29 colon
786-0 renal = system: 786-0 renal
TK-10 renal = system: TK-10 renal
OVCAR-5 ovarian = system: OVCAR-5 ovarian
SK-MEL-5 melanoma = system: SK-MEL-5 melanoma
UACC-62 melanoma = system: UACC-62 melanoma
NCI-H23 lung = system: NCI-H23 lung
SNB-75 CNS = system: SNB-75 CNS
ACHN renal = system: ACHN renal
A498 renal = system: A498 renal
NCI-H460 lung = system: NCI-H460 lung
CAKI-1 renal = system: CAKI-1 renal
SF-539 CNS = system: SF-539 CNS
SK-MEL-2 melanoma = system: SK-MEL-2 melanoma
MALME-3M melanoma = system: MALME-3M melanoma
MDA-MB-435 = system: MDA-MB-435
COLO 205 colon = system: COLO 205 colon
OVCAR-4 ovarian = system: OVCAR-4 ovarian
HOP-92 NSCLC = system: HOP-92 NSCLC
M14 melanoma = system: M14 melanoma
U251 CNS = system: U251 CNS
RPMI-8226 leukemia = system: RPMI-8226 leukemia
SF-268 CNS = system: SF-268 CNS
SW-620 colon = system: SW-620 colon
T-47D breast = system: T-47D breast
NCI/ADR-RES ovarian = system: NCI/ADR-RES ovarian
SK-OV-3 ovarian = system: SK-OV-3 ovarian
IGROV1 ovarian = system: IGROV1 ovarian

For `O=c1[nH]c(=O)n(C2C[C@@H](O)[C@@H](CO)O2)cc1F` (stereo partly drawn), the TGI (RXF 393 renal) was 13.3 µM, the GI50 (SK-MEL-28 melanoma) was 0.433 µM and the TGI (SK-MEL-28 melanoma) was over 100 µM. The TGI (OVCAR-8 ovarian) was over 100 µM, the TGI (SNB-19 CNS) was over 100 µM and the TGI (UO-31 renal) was 30.3 µM. It also gave a TGI (HCC-2998 colon) of 4.45 µM, a TGI (A549 NSCLC) of over 100 µM and a TGI (DU-145 prostate) of over 100 µM. The GI50 (CCRF-CEM leukemia) was 0.0198 µM, the TGI (CCRF-CEM leukemia) was over 100 µM and the GI50 (MCF7 breast) was under 0.01 µM. For the same compound, the TGI (MCF7 breast) was over 100 µM, the GI50 (SR leukemia) was 0.184 µM and the TGI (SR leukemia) was over 38.1 µM. For the same compound, the GI50 (K-562 leukemia) was 0.156 µM, the TGI (K-562 leukemia) was over 100 µM and the TGI (LOX IMVI melanoma) was over 100 µM. The GI50 (HCT-116 colon) was 0.0289 µM, the TGI (HCT-116 colon) was over 100 µM and the GI50 (HL-60(TB) leukemia) was 0.482 µM. For the same compound, the TGI (HL-60(TB) leukemia) was over 100 µM, the TGI (BT-549 breast) was over 100 µM and the GI50 (MOLT-4 leukemia) was 0.0375 µM. For the same compound, the TGI (HOP-62 NSCLC) was 0.956 µM, the TGI (HT29 colon) was over 100 µM and the TGI (786-0 renal) was over 100 µM. It also gave a TGI (TK-10 renal) of over 100 µM, a GI50 (OVCAR-5 ovarian) of 8.4 µM and a TGI (OVCAR-5 ovarian) of over 100 µM. It also gave a TGI (SK-MEL-5 melanoma) of 0.385 µM, a TGI (UACC-62 melanoma) of over 100 µM and a TGI (NCI-H23 lung) of over 100 µM. The TGI (SNB-75 CNS) was over 21.4 µM, the TGI (ACHN renal) was over 100 µM and the TGI (A498 renal) was 7.48 µM. The TGI (NCI-H460 lung) was 9.8 µM, the TGI (CAKI-1 renal) was over 100 µM and the TGI (SF-539 CNS) was over 60.8 µM.
Compound `C=CCNc1nc2c(N)ncnc2s1` has a TGI (SK-MEL-2 melanoma) of over 10 µM, a TGI (RXF 393 renal) of over 10 µM and a TGI (SK-MEL-28 melanoma) of over 10 µM. It also gave a TGI (A549 NSCLC) of over 10 µM, a TGI (MALME-3M melanoma) of over 10 µM and a TGI (MDA-MB-435) of over 10 µM. The TGI (CCRF-CEM leukemia) was over 10 µM, the TGI (MCF7 breast) was over 10 µM and the TGI (SR leukemia) was over 10 µM. The TGI (COLO 205 colon) was over 10 µM, the TGI (K-562 leukemia) was over 10 µM and the TGI (OVCAR-4 ovarian) was over 10 µM. For the same compound, the TGI (HOP-92 NSCLC) was over 10 µM, the TGI (M14 melanoma) was over 10 µM and the TGI (HL-60(TB) leukemia) was over 10 µM. For the same compound, the TGI (MOLT-4 leukemia) was over 10 µM, the TGI (U251 CNS) was over 10 µM and the TGI (RPMI-8226 leukemia) was over 10 µM. For the same compound, the TGI (HOP-62 NSCLC) was over 10 µM, the TGI (SF-268 CNS) was over 10 µM and the TGI (786-0 renal) was over 10 µM. It also gave a TGI (SW-620 colon) of over 10 µM, a TGI (OVCAR-5 ovarian) of over 10 µM and a TGI (T-47D breast) of over 10 µM. The TGI (SK-MEL-5 melanoma) was over 10 µM, the TGI (UACC-62 melanoma) was over 10 µM and the TGI (NCI-H23 lung) was over 10 µM. The TGI (SNB-75 CNS) was over 10 µM, the TGI (NCI/ADR-RES ovarian) was over 10 µM and the TGI (SK-OV-3 ovarian) was over 10 µM. For the same compound, the TGI (ACHN renal) was over 10 µM, the TGI (NCI-H460 lung) was over 10 µM and the TGI (IGROV1 ovarian) was over 10 µM. It also gave a TGI (CAKI-1 renal) of over 10 µM.
